Drawing on ChEMBL document CHEMBL1155710, “New bioactive sulfated metabolites from the Mediterranean tunicate Sidnyum turbinatum” (J Nat Prod, 2001), this text covers IC50 for 5 compounds.

The structures appear in SMILES notation.

The subject of this test is WEHI-164. The test can be described thus: Antiproliferative activity against mouse WEHI164 cells assessed as cell viability after 96 hrs by MTT assay. In kind it is functional, cell-based. To be noted: WEHI-164, 96 h. For orientation: Tetrazolium dyes change colour on reduction, which living cells bring about.
Usually IC50 stands for the point on the concentration scale where inhibition reaches its midpoint. On to `CC(C)CCCC(CCCC(C)CCCC(C)CCOS(=O)(=O)[O-])COS(=O)(=O)[O-].[Na+].[Na+]` (stereo not given), for which the IC50 was 300 µg/mL.

Take `CC(C)CCCC(CCCC(C)CCC[C@H](C)COS(=O)(=O)[O-])COS(=O)(=O)[O-].[Na+].[Na+]` (stereo not given in full): the IC50 was found to be 230 µg/mL.

Regarding `CCCCCCCCCCCCCCCCCOS(=O)(=O)[O-].[Na+]` [SODIUM HEPTADECYL SULFATE], the IC50 was found to be 400 µg/mL.

Take `CCCCCCOS(=O)(=O)[O-].[Na+]` [SODIUM HEXYL SULFATE]: the IC50 is 150 µg/mL.

As to `CCCCCCCCCCCCCCCCCCOS(=O)(=O)[O-].[Na+]` [SODIUM OCTADECYL SULFATE], the IC50 stood at 410 µg/mL.
